Experimental data reported in EP4603105A1, “PHARMACEUTICAL COMPOSITION CONTAINING CYCLIC COMPOUND HAVING SELECTIVE KRAS INHIBITORY EFFECT AGAINST HRAS AND NRAS” (CHUGAI SEIYAKU KABUSHIKI KAISHA, priority 2022, dated 2024).
pIC50: −log10 of the molar value.

What was measured:
[1] = molecular target: GDP-bound NRAS wild-type protein (Homo sapiens, UniProt P01111); experiment: Binding to NRAS by surface plasmon resonance (SPR), KD and KD ratio to KRAS; settings: ratio of the KD value with respect to GDP-bound NRAS wild-type protein to the KD value with respect to KRAS
In short: (§1)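 Compound binding is evaluated by SPR single-cycle kinetics, with concentrations added intermittently from low to high for 75 s each. Target surfaces carry GDP-loaded biotinylated Avi-RAS at about 100–300 RU, regenerated after each cycle; temperature 30°C. A 1:1 binding model gives KD.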

[2] = molecular target: HRAS wild-type protein (Homo sapiens, UniProt P01112); experiment: Binding to HRAS by surface plasmon resonance (SPR), KD and KD ratio to KRAS; settings: ratio of the KD value with respect to HRAS wild-type protein to the KD value with respect to KRAS
In short: as §1

[3] = system: human lung cancer strain NCI-H441; assay type: cell-based
In short: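 Proliferation was scored by […] measured after the reagent was added to cultures kept at 37°C in 5% carbon dioxide.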

Sequence of GDP-bound NRAS wild-type protein (P01111 whole entry): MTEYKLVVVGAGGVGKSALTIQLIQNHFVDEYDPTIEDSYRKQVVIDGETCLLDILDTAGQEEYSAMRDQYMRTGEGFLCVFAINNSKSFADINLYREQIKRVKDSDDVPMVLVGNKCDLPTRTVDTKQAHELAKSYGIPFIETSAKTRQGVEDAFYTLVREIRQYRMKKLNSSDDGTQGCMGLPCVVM
Sequence of HRAS wild-type protein (P01112 whole entry): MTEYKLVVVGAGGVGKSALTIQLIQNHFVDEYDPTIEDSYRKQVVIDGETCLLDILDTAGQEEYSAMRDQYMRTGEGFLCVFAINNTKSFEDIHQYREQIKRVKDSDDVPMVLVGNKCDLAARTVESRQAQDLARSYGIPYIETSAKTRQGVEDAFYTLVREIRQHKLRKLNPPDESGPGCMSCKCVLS

SMILES	NRAS /KRAS [1]	HRAS /KRAS [2]	pIC50 [3]
C#CC[C@H]1C(=O)N[C@@H]([C@@H](C)CC)C(=O)N(C)CC(=O)N(C)[C@H]2CCCCN(C2=O)[C@@H](Cc2ccc(C(F)(F)F)cc2)C(=O)N(C)CC(=O)N[C@@H](CCc2cc(F)c(C(F)(F)F)c(F)c2)C(=O)N2C[C@H](OCC)C[C@H]2C(=O)NC2(CCC2)C(=O)N(C)[C@@H](C2CCCC2)C(=O)N(C)[C@H](C(=O)N2CCOCC2)CC(=O)N1C [PP0711]	C (A compound having a KD ratio of 0.1 or more and less than 3 is denoted as C)	B (a compound having 3 or more and less than 10 is denoted as B)	8.19
CCO[C@@H]1C[C@H]2C(=O)NC3(CCC3)C(=O)N(C)[C@@H](C3CCCC3)C(=O)N(C)[C@H](C(=O)N3CCOCC3)CC(=O)N(C)[C@@H](CC3CC3)C(=O)N[C@@H]([C@@H](C)CC)C(=O)N(C)CC(=O)N(C)[C@H]3CCCCN(C3=O)[C@@H](Cc3ccc(C(F)(F)F)cc3)C(=O)N(C)CC(=O)N[C@@H](CCc3cc(F)c(C(F)(F)F)c(F)c3)C(=O)N2C1 [PP0712]	C (A compound having a KD ratio of 0.1 or more and less than 3 is denoted as C)	C (A compound having a KD ratio of 0.1 or more and less than 3 is denoted as C)	8.15
CCO[C@@H]1C[C@H]2C(=O)NC3(CCC3)C(=O)N(C)[C@@H](C3CCCC3)C(=O)N(C)[C@H](C(=O)N3CCOCC3)CC(=O)N(C)[C@@H](CC3CCC3)C(=O)N[C@@H]([C@@H](C)CC)C(=O)N(C)CC(=O)N(C)[C@H]3CCCCN(C3=O)[C@@H](Cc3ccc(C(F)(F)F)cc3)C(=O)N(C)CC(=O)N[C@@H](CCc3cc(F)c(C(F)(F)F)c(F)c3)C(=O)N2C1 [PP0713]	C (A compound having a KD ratio of 0.1 or more and less than 3 is denoted as C)	B (a compound having 3 or more and less than 10 is denoted as B)	8.38
CCO[C@@H]1C[C@H]2C(=O)NC3(CCC3)C(=O)N(C)[C@@H](C3CCCC3)C(=O)N(C)[C@H](C(=O)N3CCOCC3)CC(=O)N(C)[C@@H](CC(C)(C)C)C(=O)N[C@@H]([C@@H](C)CC)C(=O)N(C)CC(=O)N(C)[C@H]3CCCCN(C3=O)[C@@H](Cc3ccc(C(F)(F)F)cc3)C(=O)N(C)CC(=O)N[C@@H](CCc3cc(F)c(C(F)(F)F)c(F)c3)C(=O)N2C1 [PP0714]	C (A compound having a KD ratio of 0.1 or more and less than 3 is denoted as C)	B (a compound having 3 or more and less than 10 is denoted as B)	8.29
CCO[C@@H]1C[C@H]2C(=O)NC3(CCC3)C(=O)N(C)[C@@H](C3CCCC3)C(=O)N(C)[C@H](C(=O)N3CCOCC3)CC(=O)N(C)[C@@H](CC3CCCC3)C(=O)N[C@@H]([C@@H](C)CC)C(=O)N(C)CC(=O)N(C)[C@H]3CCCCN(C3=O)[C@@H](Cc3ccc(C(F)(F)F)cc3)C(=O)N(C)CC(=O)N[C@@H](CCc3cc(F)c(C(F)(F)F)c(F)c3)C(=O)N2C1 [PP0715]	C (A compound having a KD ratio of 0.1 or more and less than 3 is denoted as C)	B (a compound having 3 or more and less than 10 is denoted as B)	8.35
CCO[C@@H]1C[C@H]2C(=O)NC3(CCC3)C(=O)N(C)[C@@H](C3CCCC3)C(=O)N(C)[C@H](C(=O)N3CCOCC3)CC(=O)N(C)[C@@H](CC3CCCCC3)C(=O)N[C@@H]([C@@H](C)CC)C(=O)N(C)CC(=O)N(C)[C@H]3CCCCN(C3=O)[C@@H](Cc3ccc(C(F)(F)F)cc3)C(=O)N(C)CC(=O)N[C@@H](CCc3cc(F)c(C(F)(F)F)c(F)c3)C(=O)N2C1 [PP0716]	C (A compound having a KD ratio of 0.1 or more and less than 3 is denoted as C)	B (a compound having 3 or more and less than 10 is denoted as B)	8.20
CCO[C@@H]1C[C@H]2C(=O)NC3(CCC3)C(=O)N(C)[C@@H](C3CCCC3)C(=O)N(C)[C@H](C(=O)N3CCOCC3)CC(=O)N(C)[C@@H](COC)C(=O)N[C@@H]([C@@H](C)CC)C(=O)N(C)CC(=O)N(C)[C@H]3CCCCN(C3=O)[C@@H](Cc3ccc(C(F)(F)F)cc3)C(=O)N(C)CC(=O)N[C@@H](CCc3cc(F)c(C(F)(F)F)c(F)c3)C(=O)N2C1 [PP0719]	C (A compound having a KD ratio of 0.1 or more and less than 3 is denoted as C)	B (a compound having 3 or more and less than 10 is denoted as B)	8.07
CCO[C@@H]1C[C@H]2C(=O)NC3(CCC3)C(=O)N(C)[C@@H](C3CCCC3)C(=O)N(C)[C@H](C(=O)N3CCOCC3)CC(=O)N(C)[C@@H](CCOC)C(=O)N[C@@H]([C@@H](C)CC)C(=O)N(C)CC(=O)N(C)[C@H]3CCCCN(C3=O)[C@@H](Cc3ccc(C(F)(F)F)cc3)C(=O)N(C)CC(=O)N[C@@H](CCc3cc(F)c(C(F)(F)F)c(F)c3)C(=O)N2C1 [PP0720]	C (A compound having a KD ratio of 0.1 or more and less than 3 is denoted as C)	B (a compound having 3 or more and less than 10 is denoted as B)	7.86
CCO[C@@H]1C[C@H]2C(=O)NC3(CCC3)C(=O)N(C)[C@@H](C3CCCC3)C(=O)N(C)[C@H](C(=O)N3CCOCC3)CC(=O)N(C)C[C@@H](C)C(=O)N[C@@H]([C@@H](C)CC)C(=O)N(C)CC(=O)N(C)[C@H]3CCCCN(C3=O)[C@@H](Cc3ccc(C(F)(F)F)cc3)C(=O)N(C)CC(=O)N[C@@H](CCc3cc(F)c(C(F)(F)F)c(F)c3)C(=O)N2C1 [PP0721]	B (a compound having 3 or more and less than 10 is denoted as B)	B (a compound having 3 or more and less than 10 is denoted as B)	5.33
CCO[C@@H]1C[C@H]2C(=O)NC3(CC(C)(C)C3)C(=O)N(C)[C@@H](C3CCCC3)C(=O)N(C)[C@H](C(=O)N(C)C)CC(=O)N(C)[C@@H](C)C(=O)N[C@@H]([C@@H](C)CC)C(=O)N(C)CC(=O)N(C)[C@H]3CCCCCN(C3=O)[C@@H](Cc3ccc(C(F)(F)F)cc3)C(=O)N(C)CC(=O)N[C@@H](CCc3cc(F)c(C(F)(F)F)c(F)c3)C(=O)N2C1 [PP0723]	B (a compound having 3 or more and less than 10 is denoted as B)	B (a compound having 3 or more and less than 10 is denoted as B)	7.97
CCO[C@@H]1C[C@H]2C(=O)NC3(CCC(F)(F)CC3)C(=O)N(C)[C@@H](C3CCCC3)C(=O)N(C)[C@H](C(=O)N(C)C)CC(=O)N(C)[C@@H](C)C(=O)N[C@@H]([C@@H](C)CC)C(=O)N(C)CC(=O)N(C)[C@H]3CCCCCN(C3=O)[C@@H](Cc3ccc(C(F)(F)F)cc3)C(=O)N(C)CC(=O)N[C@@H](CCc3cc(F)c(C(F)(F)F)c(F)c3)C(=O)N2C1 [PP0725]	B (a compound having 3 or more and less than 10 is denoted as B)	B (a compound having 3 or more and less than 10 is denoted as B)	6.71
CCO[C@@H]1C[C@H]2C(=O)NC3(CC(C)(C)C3)C(=O)N(C)[C@@H](C3CCCC3)C(=O)N(C)[C@H](C(=O)N3CCOCC3)CC(=O)N(C)[C@@H](CC(C)C)C(=O)N[C@@H]([C@@H](C)CC)C(=O)N(C)CC(=O)N(C)[C@H]3CCCCCN(C3=O)[C@@H](Cc3ccc(C(F)(F)F)cc3)C(=O)N(C)CC(=O)N[C@@H](CCc3cc(F)c(C(F)(F)F)c(F)c3)C(=O)N2C1 [PP0726]	B (a compound having 3 or more and less than 10 is denoted as B)	B (a compound having 3 or more and less than 10 is denoted as B)	7.49
CCO[C@@H]1C[C@H]2C(=O)NC3(CC=CC3)C(=O)N(C)[C@@H](C3CCCC3)C(=O)N(C)[C@H](C(=O)N3CCOCC3)CC(=O)N(C)[C@@H](CC(C)C)C(=O)N[C@@H]([C@@H](C)CC)C(=O)N(C)CC(=O)N(C)[C@H]3CCCCCN(C3=O)[C@@H](Cc3ccc(C(F)(F)F)cc3)C(=O)N(C)CC(=O)N[C@@H](CCc3cc(F)c(C(F)(F)F)c(F)c3)C(=O)N2C1 [PP0727]	B (a compound having 3 or more and less than 10 is denoted as B)	B (a compound having 3 or more and less than 10 is denoted as B)	7.07
CCO[C@@H]1C[C@H]2C(=O)NC3(CCC(F)(F)CC3)C(=O)N(C)[C@@H](C3CCCC3)C(=O)N(C)[C@H](C(=O)N3CCOCC3)CC(=O)N(C)[C@@H](CC(C)C)C(=O)N[C@@H]([C@@H](C)CC)C(=O)N(C)CC(=O)N(C)[C@H]3CCCCCN(C3=O)[C@@H](Cc3ccc(C(F)(F)F)cc3)C(=O)N(C)CC(=O)N[C@@H](CCc3cc(F)c(C(F)(F)F)c(F)c3)C(=O)N2C1 [PP0728]	B (a compound having 3 or more and less than 10 is denoted as B)	B (a compound having 3 or more and less than 10 is denoted as B)	6.60
CCO[C@@H]1C[C@H]2C(=O)NC3(CCC3)C(=O)N(C)[C@@H](C3CCCC3)C(=O)N(C)[C@H](C(=O)N(C)C)CC(=O)N(C)[C@@H](C)C(=O)N[C@@H]([C@H](C)CC)C(=O)N(C)CC(=O)N(C)[C@H]3CCCCN(C3=O)[C@@H](Cc3ccc(C(F)(F)F)cc3)C(=O)N(C)CC(=O)N[C@@H](CCc3cc(F)c(C(F)(F)F)c(F)c3)C(=O)N2C1 [PP0730]	C (A compound having a KD ratio of 0.1 or more and less than 3 is denoted as C)	C (A compound having a KD ratio of 0.1 or more and less than 3 is denoted as C)	7.53
CC[C@H](C)[C@@H]1NC(=O)[C@H](CC)N(C)C(=O)C[C@@H](C(=O)N(C)C)N(C)C(=O)[C@H](C2CCCC2)N(C)C(=O)C2(CCC2)NC(=O)[C@@H]2C[C@H](N3CCC(F)(F)CC3)CN2C(=O)[C@H](CCc2cc(F)c(C(F)(F)F)c(F)c2)NC(=O)CN(C)C(=O)[C@H](Cc2ccc(C(F)(F)F)cc2)N2CCCCC[C@@H](C2=O)N(C)C(=O)CN(C)C1=O [PP0731]	B (a compound having 3 or more and less than 10 is denoted as B)	B (a compound having 3 or more and less than 10 is denoted as B)	6.96
